Converted amounts (≈) assume the structure as drawn. Where two headings read alike, the source gives them in different places.
Tests used:
Solubility in PBS = type: physicochemical
Summary of the method: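 Solubility is derived from HPLC peak areas: the ratio of the PBS supernatant peak to a 50 μM DMSO peptide peak, times 50 uM.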

[1] = target: T1, beta-catenin/TCF4 engagement (Homo sapiens, UniProt P35222); experiment: Nano-BRET target engagement assay (B-cat-Halo & TCF4-Luc in HEK293 cells); type: cell-based; details: for IC50: absolute IC50, read-out: NanoBRET Abs IC50
T1 construct: expressed in transfected cells; host or cells: HEK293
T1 sequence (P35222 1-781): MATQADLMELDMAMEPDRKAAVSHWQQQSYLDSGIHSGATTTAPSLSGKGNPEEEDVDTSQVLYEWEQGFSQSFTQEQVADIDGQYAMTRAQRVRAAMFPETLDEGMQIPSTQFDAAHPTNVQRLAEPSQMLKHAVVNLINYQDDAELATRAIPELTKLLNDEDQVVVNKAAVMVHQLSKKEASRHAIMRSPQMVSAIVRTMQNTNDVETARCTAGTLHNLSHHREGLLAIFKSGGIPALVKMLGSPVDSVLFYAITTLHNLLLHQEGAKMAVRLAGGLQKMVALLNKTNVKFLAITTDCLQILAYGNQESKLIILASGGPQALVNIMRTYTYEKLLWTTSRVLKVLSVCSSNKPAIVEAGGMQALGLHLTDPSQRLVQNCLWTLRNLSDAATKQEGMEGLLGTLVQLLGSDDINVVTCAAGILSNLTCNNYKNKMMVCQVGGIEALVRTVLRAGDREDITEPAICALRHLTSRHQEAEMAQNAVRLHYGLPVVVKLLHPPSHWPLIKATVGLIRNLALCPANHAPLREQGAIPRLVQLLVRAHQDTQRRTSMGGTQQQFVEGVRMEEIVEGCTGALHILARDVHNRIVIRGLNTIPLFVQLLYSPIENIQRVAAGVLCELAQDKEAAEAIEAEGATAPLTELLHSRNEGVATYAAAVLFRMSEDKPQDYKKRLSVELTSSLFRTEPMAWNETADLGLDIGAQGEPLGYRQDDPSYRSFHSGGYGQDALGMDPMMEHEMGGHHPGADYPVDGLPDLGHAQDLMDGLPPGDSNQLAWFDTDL

[2] = target: T2, full-length beta-Catenin (Uniprot ID P35222) (Homo sapiens, UniProt P35222); experiment: Fluorescence polarization IC50 (beta-catenin / 5FAM-TCF4 10-53 competition); type: binding
T2 construct: 10 nM full-length beta-Catenin (Uniprot ID P35222)
T2 sequence (P35222 1-781): T1 sequence (P35222 1-781)

CHI Log D procedure = type: physicochemical; details: for chromatographic logD: pH 7.4, CHI Log D; for CHI Log D: pH 7.4
[3] = fluorescence polarization, read-out: beta-Catenin FP IC50

| Structure (SMILES) | Solubility (Solubility in PBS; Solubility (uM)) | IC50 [1] | IC50 [2, 3] | chromatographic logD (CHI Log D procedure) | Solubility (Solubility in PBS) | IC50 ([2]; read-out: FP EC50) | CHI Log D (CHI Log D procedure) | inhibition at 10 µM ([1]; HEK293, @ 10 uM, read-out: NanoBRET % inh @ 10 uM) |
| --- | --- | --- | --- | --- | --- | --- | --- | --- |
| CC(=O)N1CCC[C@]12CC=CCCCC1(CCCC=CCCCCCC[C@@](C)(C(=O)N[C@@H](Cc3ccccc3)C(=O)N[C@@H](Cc3csc4ccccc34)C(=O)N[C@@H](Cc3c[nH]cn3)C(N)=O)NC(=O)[C@H](CC(N)=O)NC(=O)[C@H](Cc3ccccc3)NC(=O)[C@H](C)NC(=O)[C@H](C)NC(=O)[C@H](CCC(=O)O)NC(=O)[C@H](CC(=O)O)NC1=O)NC(=O)[C@H](CC(C)C)NC(=O)[C@H](CC(=O)O)NC2=O (stereo partly drawn) [I-543, Ac-PL3-Asp-Leu-B5-Asp-Glu-Ala-Ala-Phe-Asn-S8-Phe-BztA-His-NH2] | 28 µM (≈ 52.6 µg/mL) | 17000 nM | 32 nM | 2.47 |  |  |  |  |
| CC(=O)N1CCC[C@]12CC=CCCCC1(CCCC=CCCCCCC[C@@](C)(C(=O)N[C@@H](Cc3ccccc3)C(=O)N[C@@H](Cc3csc4ccccc34)C(=O)N[C@@H](CCC(N)=O)C(N)=O)NC(=O)[C@H](CCC(N)=O)NC(=O)[C@H](Cc3ccccc3)NC(=O)[C@H](C)NC(=O)[C@H](C)NC(=O)[C@H](CCC(=O)O)NC(=O)[C@H](CC(=O)O)NC1=O)NC(=O)[C@H](CC(C)(C)C)NC(=O)[C@H](CC(=O)O)NC2=O (stereo partly drawn) [I-544, Ac-PL3-Asp-Npg-B5-Asp-Glu-Ala-Ala-Phe-Gln-S8-Phe-BztA-Gln-NH2] | 48 µM (≈ 91.1 µg/mL) | 4600 nM | 24 nM | 2.48 |  |  |  |  |
| CC(=O)N1CCC[C@]12CC=CCCCC1(CCCC=CCCCCCC[C@@](C)(C(=O)N[C@@H](Cc3ccccc3)C(=O)N[C@@H](Cc3csc4ccccc34)C(=O)N[C@@H](CCC(N)=O)C(N)=O)NC(=O)[C@H](CCC(N)=O)NC(=O)[C@H](Cc3ccccc3)NC(=O)[C@H](C)NC(=O)[C@H](C)NC(=O)[C@H](CCC(=O)O)NC(=O)[C@H](CC(=O)O)NC1=O)NC(=O)[C@H](CCC(C)C)NC(=O)[C@H](CC(=O)O)NC2=O (stereo partly drawn) [I-545, Ac-PL3-Asp-hLeu-B5-Asp-Glu-Ala-Ala-Phe-Gln-S8-Phe-BztA-Gln-NH2] | 46 µM (≈ 87.3 µg/mL) | 3500 nM | 21 nM | 2.57 |  |  |  |  |
| CC(=O)N1CCC[C@]12CC=CCCCC1(CCCC=CCCCCCC[C@@](C)(C(=O)N[C@@H](Cc3ccccc3)C(=O)N[C@@H](Cc3csc4ccccc34)C(=O)N[C@@H](CCC(N)=O)C(N)=O)NC(=O)[C@H](CC(N)=O)NC(=O)[C@H](Cc3ccccc3)NC(=O)[C@H](C)NC(=O)[C@H](C)NC(=O)[C@H](CC(=O)O)NC(=O)[C@H](CC(=O)O)NC1=O)NC(=O)[C@H](CC(C)(C)C)NC(=O)[C@H](CC(=O)O)NC2=O (stereo partly drawn) [I-546, Ac-PL3-Asp-Npg-B5-Asp-Asp-Ala-Ala-Phe-Asn-S8-Phe-BztA-Gln-NH2] |  | 12100 nM | 16 nM | 2.4 | 50 µM (≈ 93.5 µg/mL) |  |  |  |
| CC(=O)N1CCC[C@]12CC=CCCCC1(CCCC=CCCCCCC[C@@](C)(C(=O)N[C@@H](Cc3ccccc3)C(=O)N[C@@H](Cc3csc4ccccc34)C(=O)N[C@@H](CCC(N)=O)C(N)=O)NC(=O)[C@H](CC(N)=O)NC(=O)[C@H](Cc3ccccc3)NC(=O)[C@H](C)NC(=O)[C@H](C)NC(=O)[C@H](CC(=O)O)NC(=O)[C@H](CC(=O)O)NC1=O)NC(=O)[C@H](CCC(C)C)NC(=O)[C@H](CC(=O)O)NC2=O (stereo partly drawn) [I-548, Ac-PL3-Asp-hLeu-B5-Asp-Asp-Ala-Ala-Phe-Asn-S8-Phe-BztA-Gln-NH2] |  | 15600 nM | 17 nM |  | 50 µM (≈ 93.5 µg/mL) | 17 nM | 2.528 |  |
| CC[C@H](C)[C@@H]1NC(=O)[C@H](CC(=O)O)NC(=O)[C@]2(CC=CCCCC3(CCCC=CCCCCCC[C@@](C)(C(=O)N[C@@H](Cc4ccccc4OC)C(=O)N[C@@H](Cc4csc5ccccc45)C(=O)N[C@@H](CCC(N)=O)C(N)=O)NC(=O)[C@H](CC(N)=O)NC(=O)[C@H](Cc4ccccc4)NC(=O)[C@H](C)NC(=O)[C@H](C)NC(=O)[C@H](CC(=O)O)NC(=O)[C@H](CC(=O)O)NC3=O)NC1=O)CCCN2C(C)=O (stereo partly drawn) [I-550, Ac-PL3-Asp-Ile-B5-Asp-Asp-Ala-Ala-Phe-Asn-S8-2OMeF-BztA-Gln-NH2] |  | 21400 nM | 30 nM |  | 50 µM (≈ 94.3 µg/mL) | 30 nM | 2.343 |  |
| CC[C@H](C)[C@@H]1NC(=O)[C@H](CC(=O)O)NC(=O)[C@]2(CC=CCCCC3(CCCC=CCCCCCC[C@@](C)(C(=O)N[C@@H](Cc4ccccc4)C(=O)N[C@@H](Cc4csc5ccccc45)C(=O)N[C@@H](CCC(N)=O)C(N)=O)NC(=O)[C@H](CC(N)=O)NC(=O)[C@H](Cc4ccccc4)NC(=O)[C@H](C)NC(=O)[C@H](C)NC(=O)[C@H](CCC(=O)O)NC(=O)[C@H](CC(=O)O)NC3=O)NC1=O)CCCN2C(C)=O (stereo partly drawn) [I-557, Ac-PL3-Asp-Ile-B5-Asp-Glu-Ala-Ala-Phe-Asn-S8-Phe-BztA-Gln-NH2] | 47 µM (≈ 87.9 µg/mL) | 16900 nM | 35 nM | 2.39 |  |  |  |  |
| CC(=O)N1CCC[C@]12CC=CCCCC1(CCCC=CCCCCCC[C@@](C)(C(=O)N[C@@H](Cc3ccccc3)C(=O)N[C@@H](Cc3csc4ccccc34)C(=O)N[C@@H](CCC(N)=O)C(N)=O)NC(=O)[C@H](CC(N)=O)NC(=O)[C@H](Cc3ccccc3)NC(=O)[C@H](C)NC(=O)[C@H](C)NC(=O)[C@H](CC(=O)O)NC(=O)[C@H](CC(=O)O)NC1=O)NC(=O)[C@H](CC(C)C)NC(=O)[C@H](CC(=O)O)NC2=O (stereo partly drawn) [I-563, Ac-PL3-Asp-Leu-B5-Asp-Asp-Ala-Ala-Phe-Asn-S8-Phe-BztA-Gln-NH2] |  | 15700 nM | 19 nM |  | 50 µM (≈ 92.8 µg/mL) | 19 nM | 2.317 |  |
| CC(=O)N1CCC[C@]12CC=CCCCC1(CCCC=CCCCCCC[C@@](C)(C(=O)N[C@@H](Cc3ccccc3)C(=O)N[C@@H](Cc3csc4ccccc34)C(=O)N[C@@H](Cc3c[nH]cn3)C(N)=O)NC(=O)[C@H](CC(N)=O)NC(=O)[C@H](Cc3ccccc3)NC(=O)[C@H](C)NC(=O)[C@H](C)NC(=O)[C@H](CC(=O)O)NC(=O)[C@H](CC(=O)O)NC1=O)NC(=O)[C@H](CC(C)C)NC(=O)[C@H](CC(=O)O)NC2=O (stereo partly drawn) [I-564, Ac-PL3-Asp-Leu-B5-Asp-Asp-Ala-Ala-Phe-Asn-S8-Phe-BztA-His-NH2] |  | > 20000 nM | 36 nM |  | 47 µM (≈ 87.6 µg/mL) | 36 nM | 2.374 |  |
| CC(=O)N1CCC[C@]12CC=CCCCC1(CCCC=CCCCCCC[C@@](C)(C(=O)N[C@@H](Cc3ccccc3)C(=O)N[C@@H](Cc3csc4ccccc34)C(=O)N[C@@H](Cc3c[nH]cn3)C(N)=O)NC(=O)[C@H](CC(N)=O)NC(=O)[C@H](Cc3ccccc3)NC(=O)[C@H](C)NC(=O)[C@H](C)NC(=O)[C@H](CC(=O)O)NC(=O)[C@H](CC(=O)O)NC1=O)NC(=O)[C@H](CC(C)C)NC(=O)[C@H](CC(=O)O)NC2=O (stereo partly drawn) [I-565, Ac-PL3-Asp-Leu-B5-Asp-Asp-Ala-Ala-Phe-Asn-S8-Phe-BztA-His-NH2] |  | 26000 nM | 13 nM |  | 26 µM (≈ 48.5 µg/mL) | 13 nM | 2.435 |  |
| CC(=O)N1CCC[C@]12CC=CCCCC1(CCCC=CCCCCCC[C@@](C)(C(=O)N[C@@H](Cc3ccccc3)C(=O)N[C@@H](Cc3csc4ccccc34)C(=O)N[C@@H](CCC(N)=O)C(N)=O)NC(=O)[C@H](CC(N)=O)NC(=O)[C@H](Cc3ccccc3)NC(=O)[C@H](C)NC(=O)[C@H](C)NC(=O)[C@H](CC(=O)O)NC(=O)[C@H](CC(=O)O)NC1=O)NC(=O)[C@H](C(C)C)NC(=O)[C@H](CC(=O)O)NC2=O (stereo partly drawn) [I-567, Ac-PL3-Asp-Val-B5-Asp-Asp-Ala-Ala-Phe-Asn-S8-Phe-BztA-Gln-NH2] |  |  | 37 nM |  | 50 µM (≈ 92.1 µg/mL) | 37 nM | 2.243 | 8.9% |

Source: patent US20240116985A1, “STAPLED PEPTIDES AND METHODS THEREOF” (priority 2020, published 2024)
